Data set [1] relates to ERK phosphorylation in KRAS^G12D mutant cells (AGS). Kind of data set: AGS ERK phosphorylation inhibition experiment. The class given is cell-based. Conditions: 1 hour compound, hEGF 10 minutes. On the procedure: (§1) KRAS^G12D mutant cells (such as GP2D, AGS, etc.) were seeded in a 384-well plate and cultured overnight in a 37° C., 5% CO2 incubator.
(§2) 200 nL of diluted compound was added with Echo 500 to a final DMSO concentration of 0.5%, and cultured in a 37° C., 5% CO2 incubator for 1 hour. Then hEGF was added for acting for 10 minutes.
(§3) The culture medium was discarded, and then cell fixative was added to fix the cells.
(§4) The cells were washed once with PBS, and then incubated with cold 100% methanol.
(§5) Methanol was removed and the cells were washed with PBS.
(§6) PBS was removed, and each well was added with Li-Cor blocking buffer, and blocked at room temperature for 1 hr.
(§7) The blocking solution was removed, and primary antibody mixture was added to each well, and incubated at […] 4° C. overnight.
(§8) The primary antibody mixture was removed, and the cells were washed by adding PBST for 3 times.
(§9) Secondary antibody mixture was added and incubated at room temperature in the dark for 45 min.
(§10) The secondary antibody mixture was removed, and the cells were washed by adding PBST for 3 times. Finally, PBST was suctioned out, and the plate was centrifuged upside down at 1000 rpm for 1 min.
(§11) The plate was read by Odyssey CLx.

In data set [2] the test system is ERK phosphorylation in KRAS^G12D mutant cells (GP2D). In words: GP2D ERK phosphorylation inhibition experiment. It counts as cell-based. As to conditions: 1 hour compound, hEGF 10 minutes. The procedure:
as §1, §2, §3, §4, §5, §6, §7, §8, §9, §10, §11

The test system of a further data set is GP2D. In words: Cell proliferation inhibition, GP2D (CellTiter-Glo 3D, 7 days). It counts as cell-based. Conditions: 168 h. The method in brief:
(§12)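 Cells exposed to compound (final DMSO 0.5%) in duplicate for 7 days at 37 °C, 5% CO2, then CellTiter-Glo 3D added with 20 min shaking and 2 h dark incubation before luminescence. Inhibition normalized to medium and blank controls; IC50, minimum and maximum inhibition from curve fits.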
Background: ATP-based viability assays read luminescence as a measure of living cells.

For a further data set, the system named is AsPC-1. Kind of data set: Cell proliferation inhibition, AsPC-1 (CellTiter-Glo 3D, 7 days). The class given is cell-based. Conditions: Homo sapiens, ASPC1, 168 h; AsPC-1, 7 days. Summed up: as §12
The test system of another data set is AGS. Kind of data set: Cell proliferation inhibition, AGS (CellTiter-Glo 3D, 7 days). The class given is cell-based. Conditions: Homo sapiens, 168 h. The procedure:
• (a) Resuscitating cells in T75 cell culture flask: • (b) When the cell confluence reaches 80-90%, subculturing the cells.
The diluted test compound was added to a 384-well cell culture plate with a nanoliter pipetting system, and duplicate wells were set up. An equal volume of culture medium was added to the positive control group; and an equal volume of DMSO was added to the negative control group, then centrifugation was conducted at 1000 rpm for 1 min at room temperature.
Cells were inoculated into a) 384-well culture plate, with an equal volume of cells added to the negative control group, and only an equal volume of culture medium added to the positive control group. The plate was centrifuged at 1000 rpm for 1 min at room temperature, and the final DMSO concentration of the compound was 0.5% at last. The plate was placed in a 37° C., 5% CO2 constant temperature incubator for 7 days.
20 μL/well of CellTiter-Glo® 3D to b) was added to 384-well cell culture plate, and the plate was shook at 320 rpm for 20 min in the dark, and incubated at room temperature in the dark for 2 hrs.
The luminescence value was read using an Envision multi-functional microplate reader.
The inhibition rate (IR) of the test compound was calculated using the following formula: IR (%)=(1−(RLU compound−RLU blank control)/(RLU meidum control−RLU blank control))*100%. The inhibition rates of different concentrations of compounds were calculated in Excel, and then the inhibition curves were plotted and the related parameters (including the minimum inhibition rate, maximum inhibition rate and IC50) were calculated using GraphPad Prism software.

Another data set in a line: in vivo. Conditions: male, ICR, mouse, po, 30 mg/kg.
Data set [3] in a line: Pharmacokinetic test evaluation in mice, oral. As to conditions: male ICR mice, oral 30 mg/kg, plasma.
Experimental: (§13) Male ICR mice, weighing 22-24 g, were fasted overnight and orally administered with 30 mg/kg of a solution of the compound of the present invention or the control compound [10% DMSO+60% PEG400+30% aqueous solution]. Blood was collected at 0.25, 0.5, 1.0, 2.0, 4.0, 6.0, 8.0, 12.0 and 24 h after administration of the compound of the present invention respectively, and the concentration of the compound of the present invention or the control compound in plasma was determined by LC/MS/MS.

Where only a bound is given, the exact number is not on record here.

Experimental for in vivo: as §13

As usually defined, the IC50 is the point on the concentration scale where inhibition reaches its midpoint. A higher IC50 goes with weaker potency. As for `C#Cc1c(F)ccc2cc(O)cc(-c3ncc4c(N5C[C@H]6CC[C@@H](C5)N6)nc(OCC56CCCN5CC5(C6)CC5(F)F)nc4c3F)c12` (single isomer, unassigned) [Example 16A], the IC50 in data set [1] came out at 10.6 nM.

`C#Cc1c(F)ccc2cc(O)cc(-c3ncc4c(N5C[C@H]6CC[C@@H](C5)N6)nc(OCC56CCCN5CC5(C6)CC5(F)F)nc4c3F)c12` (single isomer, unassigned) [Example 16B] gave a half-inhibitory concentration (IC50) in data set [1] of 3.34 nM.

In the case of `C#Cc1c(F)ccc2cc(O)cc(-c3ncc4c(N5C[C@H]6CC[C@@H](C5)N6)nc(OC[C@]56CCCN5[C@H](COC)CC6)nc4c3F)c12` [Example 1 Isomer 1A, 4-(4-((1R,5S)-3,8-diazabicyclo[3.2.1]octan-3-yl)-8-fluoro-2-((3S,7aR)-(3-(methoxymethyl)tetrahydro-1H-pyrrolizin-7a(5H)-yl)methoxy)pyridino[4,3-d]pyrimidin-7-yl)-5-ethynyl-6-fluoronaphthalen-2-ol], the half-maximal inhibitory concentration (IC50) in data set [2] was 2.6 nM; in data set [1] (Homo sapiens), 9.67 nM.

Turning to `C#Cc1c(F)ccc2cc(O)cc(-c3ncc4c(N5C[C@H]6CC[C@@H](C5)N6)nc(OC[C@@]56CCCN5[C@@H](COC)CC6)nc4c3F)c12` [Example 1 Isomer 1B, 4-(4-((1R,5S)-3,8-diazabicyclo[3.2.1]octan-3-yl)-8-fluoro-2-((3R,7aS)-(3-(methoxymethyl)tetrahydro-1H-pyrrolizin-7a(5H)-yl)methoxy)pyridino[4,3-d]pyrimidin-7-yl)-5-ethynyl-6-fluoronaphthalen-2-ol], the half-maximal inhibitory concentration (IC50) in data set [2] stood at 2.1 nM; in data set [1] (Homo sapiens) it was 3.76 nM.

For `C#Cc1c(F)ccc2cc(O)cc(-c3ncc4c(N5C[C@H]6CC[C@@H](C5)N6)nc(OC[C@]56CCCN5[C@@H](COC)CC6)nc4c3F)c12` [Example 1 Isomer 2A, 4-(4-((1R,5S)-3,8-diazabicyclo[3.2.1]octan-3-yl)-8-fluoro-2-((3R,7aR)-(3-(methoxymethyl)tetrahydro-1H-pyrrolizin-7a(5H)-yl)methoxy)pyridino[4,3-d]pyrimidin-7-yl)-5-ethynyl-6-fluoronaphthalen-2-ol], the IC50 in data set [1] (Homo sapiens) is 19 nM. This lies in the double-digit nanomolar range.

Take `C#Cc1c(F)ccc2cc(O)cc(-c3ncc4c(N5C[C@H]6CC[C@@H](C5)N6)nc(OC[C@@]56CCCN5[C@H](COC)CC6)nc4c3F)c12` [Example 1 Isomer 2B, 4-(4-((1R,5S)-3,8-diazabicyclo[3.2.1]octan-3-yl)-8-fluoro-2-((3S,7aS)-(3-(methoxymethyl)tetrahydro-1H-pyrrolizin-7a(5H)-yl)methoxy)pyridino[4,3-d]pyrimidin-7-yl)-5-ethynyl-6-fluoronaphthalen-2-ol]: half-maximal inhibition in data set [1] (Homo sapiens) (IC50) was put at 139 nM.

The molecule `C#Cc1c(F)ccc2cc(O)cc(-c3ncc4c(N5CC6CCC(C5)N6)nc(OCC56CCCN5CC5(CC5)C6)nc4c3F)c12` [Example 9, 4-(4-(1R,5S)-3,8-diazabicyclo[3.2.1]octan-3-yl)-2-(dihydro-1′H,3′H-spiro[1,2′-pyrrolizin]-7a′(5′H)-yl)methoxy)-8-fluoropyridino[4,3-d]pyrimidin-7-yl)-5-ethynyl-6-fluoro-naphthalen-2-ol] returned an IC50 in data set [1] (Homo sapiens) of 8.2 nM.

As usually defined, the AUC(0-inf) is total exposure, with the tail of the curve extrapolated. By AUC(0-t) is commonly meant the area under the concentration-time curve up to a stated or last time point. Lower therefore signals less exposure. The Cmax is the highest concentration seen after dosing. Usually Tmax stands for the time at which the peak concentration occurs. As a reminder, the half-life is the time needed for the level to fall by half in the phase considered. Lower therefore signals rapid decline. Consider `Nc1cc(Cl)c(C(F)(F)F)c(-c2ncc3c(N4C[C@H]5CC[C@@H](C4)N5)nc(OC[C@@]45CCCN4C[C@@]4(CC4(F)F)C5)nc3c2F)c1` [Example 27, 3-(4-((1R,5S)-3,8-diazabicyclo[3.2.1]octan-3-yl)-2-(((1S,7a'S)-2,2-difluorodihydro-1′H,3′H-spiro[cyclopropan-1,2′-pyrrolizin]-7a′(5′H)-yl)methoxy)-8-fluoropyridino[4,3-d]pyrimidin-7-yl)-5-chloro-4-(trifluoromethyl)aniline], for which the IC50 in the data set with GP2D is 0.38 nM. Besides, in the data set with AsPC-1, the IC50 amounted to 4.14 nM. In the data set on AGS, this molecule displayed an IC50 of 5.24 nM. In “in vivo”, the AUC(0-inf) is 5650 ng·h/mL, the AUC(0-t) amounted to 5090 ng·h/mL, the maximum concentration (Cmax) came out at 953 ng/mL and the Tmax is 0.25 h. The half-life in the data set “in vivo” was 9.32 h.

As for `Nc1cc(F)c(Cl)c(-c2ncc3c(N4C[C@H]5CC[C@@H](C4)N5)nc(OC[C@@]45CCCN4C[C@@]4(CC4(F)F)C5)nc3c2F)c1Cl` [Example 37, 3-(4-((1R,5S)-3,8-diazabicyclo[3.2.1]octan-3-yl)-2-(((1S,7a'S)-2,2-difluorodihydro-1′H,3′H-spiro[cyclopropan-1,2′-pyrrolizin]-7a′(5′H)-yl)methoxy)-8-fluoropyridino[4,3-d]pyrimidin-7-yl)-2,4-dichloro-5-fluoroaniline], the IC50 was greater than 100 nM in the data set with GP2D, greater than 1000 nM with AsPC-1 and greater than 1000 nM in the data set on AGS.

On to `Nc1cc(-c2ncc3c(N4C[C@H]5CC[C@@H](C4)N5)nc(OC[C@@]45CCCN4C[C@@]4(CC4(F)F)C5)nc3c2F)c(C(F)(F)F)c(Cl)c1F` [Example 41, 5-(4-((1R,5S)-3,8-diazabicyclo[3.2.1]octan-3-yl)-2-(((1S,7a'S)-2,2-difluorodihydro-1′H,3′H-spiro[cyclopropan-1,2′-pyrrolizin]-7a′(5′H)-yl)methoxy)-8-fluoropyridino[4,3-d]pyrimidin-7-yl)-3-chloro-2-fluoro-4-(trifluoromethyl)aniline], for which the figures for the IC50 in the data set on GP2D, in the data set on AsPC-1 and in the data set with AGS were 1.41 nM, 14.2 nM and 16.6 nM, respectively.

Turning to `Cc1c(F)c(N)cc(-c2ncc3c(N4C[C@H]5CC[C@@H](C4)N5)nc(OC[C@@]45CCCN4C[C@@]4(CC4(F)F)C5)nc3c2F)c1C(F)(F)F` [Example 42, 5-(4-((1R,5S)-3,8-diazabicyclo[3.2.1]octan-3-yl)-2-(((1S,7a'S)-2,2-difluorodihydro-1′H,3′H-spiro[cyclopropan-1,2′-pyrrolizin]-7a′(5′H)-yl)methoxy)-8-fluoropyridino[4,3-d]pyrimidin-7-yl)-2-fluoro-3-methyl-4-(trifluoromethyl)aniline], the half-maximal inhibitory concentration (IC50) in the data set with GP2D is 0.68 nM; with AsPC-1, 8.83 nM; with AGS, 13.9 nM.

Regarding `N#Cc1c(N)ccc(Cl)c1-c1ncc2c(N3C[C@H]4CC[C@@H](C3)N4)nc(OC[C@@]34CCCN3C[C@@]3(CC3(F)F)C4)nc2c1F` [Example 51, 2-(4-((1R,5S)-3,8-diazabicyclo[3.2.1]octan-3-yl)-2-(((1S,7a'S)-2,2-difluorodihydro-1′H,3′H-spiro[cyclopropan-1,2′-pyrrolizin]-7a′(5′H)-yl)methoxy)-8-fluoropyridino[4,3-d]pyrimidin-7-yl)-6-amino-3-chlorobenzonitrile], the results for the IC50 in the data set with GP2D, in the data set with AsPC-1 and in the data set on AGS were greater than 100 nM, greater than 1000 nM and greater than 1000 nM, respectively.

In the case of `Cc1c(N)cnc(C(F)(F)F)c1-c1ncc2c(N3C[C@H]4CC[C@@H](C3)N4)nc(OC[C@@]34CCCN3C[C@@]3(CC3(F)F)C4)nc2c1F` [Example 54, 5-(4-((1R,5S)-3,8-diazabicyclo[3.2.1]octan-3-yl)-2-(((1S,7a'S)-2,2-difluorodihydro-1′H,3′H-spiro[cyclopropan-1,2′-pyrrolizin]-7a′(5′H)-yl)methoxy)-8-fluoropyridino[4,3-d]pyrimidin-7-yl)-4-methyl-6-(trifluoromethyl)pyridin-3-amine], the IC50 with GP2D is greater than 100 nM; in the data set on AsPC-1, greater than 1000 nM; in the data set with AGS it was greater than 1000 nM.

For `C#Cc1c(F)ccc2cc(O)cc(-c3ncc4c(N5CC6CCC(C5)N6)nc(OC[C@@]56CCCN5C[C@H](F)C6)nc4c3F)c12` [MRTX1133, reference compound], the IC50 in the data set on GP2D was found to be 1.28 nM; in the data set on AsPC-1 it was 6.77 nM; with AGS, 5.15 nM. The “AUC0-∞” value in data set [3] is “BLOQ”. Further, the exposure AUC(0-t) result in data set [3] is on record as “BLOQ”. For the same molecule, the maximum concentration (Cmax) entry in data set [3] is on record as “BLOQ”.
